Literature values, collected in patent publication US20170281701A1, “Formulation for the Nebulization of Oil Based Substances Suitable for Use with a Vibrating Mesh Nebulizer” (priority 2016, published 2017).

Assays:
[1] = smoked cannabis cigarette, of total available amount
[2] = not given; remark: listed apart in the source
[3] = compared with Δ8-THC
[4] = oral dose of 20 mg in a chocolate cookie

## CCCCCc1cc(O)c2c(c1)OC(C)(C)[C@@H]1CCC(C)=C[C@@H]21 [dronabinol]
Orally administered, extensive first-pass metabolism
  administered dose entering the systemic circulation: 10-20%

## CCCCCc1cc(O)c2c(c1)OC(C)(C)[C@@H]1CCC(C)=C[C@@H]21 [Δ^9-THC, Δ-9-tetrahydrocannabinol]
[1]
  maximum of THC content in a cannabis cigarette absorbed or delivered to the systemic circulation: 25-27%
[2]
  absorption through the rectal route: not absorbed
[4]
  absorption (description): slow and unreliable
  systemic availability: 4-12%

## CCCCCc1cc(O)c2c(c1)OC(C)(C)c1ccc(C)cc1-2 [CBN, cannabinol]
[3]
  permeability through the skin relative to Δ8-THC: 10 fold

## C=C(C)[C@@H]1CCC(C)=C[C@H]1c1c(O)cc(CCCCC)cc1O [CBD, cannabidiol]
[3]
  permeability through the skin relative to Δ8-THC: 10 fold

## CCCCCc1cc(OC(=O)CCC(=O)O)c2c(c1)OC(C)(C)[C@@H]1CCC(C)=C[C@@H]21 [Δ^9-THC-hemisuccinate]
[2]
  absorption through the rectal route: is absorbed
